Experiments:
[1] = target: T1, human emopamil binding protein and human 7-dehydrocholesterol reductase (hEBP-DHCR7) (Homo sapiens, UniProt Q15125); assay: hEBP-DHCR7 radioligand filtration binding assay; details: membranes of HEK293 co-expressing hEBP and DHCR7; [3H] 2-thia-6-azaspiro[3.4]octane radioligand; 8 doses 0.06 to 5000 nM
T1 construct: expressed in transfected cells; host or cells: HEK 293 cells, transient transfection with 2 DNA constructs
Method in brief: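 Membranes from HEK293 cells transiently co-expressing human EBP and DHCR7 (10 μg/well) incubated 3 h at 22 °C with tritiated 2-thia-6-azaspiro[3.4]octane dioxide radioligand (25 nM stock addition) and compound at 0.06–5000 nM final. Bound ligand collected on PEI-treated GF/B filters, scintillation-counted. IC50 by Hill fit; reported as Ki.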

[2] = system: zymostenol accumulation in EpiSC-derived OPCs (EBP); assay: GC/MS-based sterol profiling (zymostenol accumulation); assay type: cell-based; details: Mus musculus, 24 hours, 8 doses from 0.15 nM to 333 nM, read-out: Zymostenol GCMS EC50
Method in brief: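 Mouse epiblast stem cell-derived OPCs plated at 100,000 cells/well in growth-factor-free N2B27 and treated 24 h. Sterols extracted by modified Folch wash, silylated with BSTFA, and quantified by electron-impact GC/MS against cholesterol-d7 (zymostenol ion 458). Zymostenol normalised to 24 h 100 nM positive-control reference.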

T1 sequence (Q15125 whole entry): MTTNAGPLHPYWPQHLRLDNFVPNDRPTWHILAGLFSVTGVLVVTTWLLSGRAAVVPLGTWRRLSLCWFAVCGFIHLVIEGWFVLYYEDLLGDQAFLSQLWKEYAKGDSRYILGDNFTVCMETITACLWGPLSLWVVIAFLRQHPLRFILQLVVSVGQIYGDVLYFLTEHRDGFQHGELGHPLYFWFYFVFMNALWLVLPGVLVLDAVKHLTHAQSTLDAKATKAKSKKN

SMILES | Ki [1] [nM] | EC50 [2] [nM]
CC(C)n1nc(-c2cccc(C(F)(F)F)n2)cc1[C@H]1[C@@H]2C[C@@H](N3CCC4(C3)CS(=O)(=O)C4)C[C@@H]21 (single isomer, unassigned) [Compound 11] | 13.2 | 7.2
CC(C)n1nc(-c2cncc(C(F)(F)F)c2)nc1[C@H]1[C@@H]2C[C@@H](N3CCC4(C3)CS(=O)(=O)C4)C[C@@H]21 (single isomer, unassigned) [Compound 16] | 21 | 6.7
CC(C)n1nc(-c2ccnc(C(F)(F)F)n2)cc1[C@H]1[C@@H]2C[C@H](N3CCC4(C3)CS(=O)(=O)C4)C[C@@H]21 [Compound 15, 6-((1R,3r,5S,6r)-6-(1-Isopropyl-3-(2-(trifluoromethyl)pyrimidin-4-yl)-1H-pyrazol-5-yl)bicyclo[3.1.0]hexan-3-yl)-2-thia-6-azaspiro[3.4]octane 2,2-dioxide] | 20 | 3.2
CC(C)n1nc(C2(C(F)(F)F)CC2)cc1[C@H]1[C@@H]2C[C@H](N3CCC4(C3)CS(=O)(=O)C4)C[C@@H]21 [Compound 32, 6-((1R,3r,5S,6r)-6-(1-Isopropyl-3-(1-(trifluoromethyl)cyclopropyl)-1H-pyrazol-5-yl)bicyclo[3.1.0]hexan-3-yl)-2-thia-6-azaspiro[3.4]octane 2,2-dioxide] | 13.5 | 5.3
CC(C)n1nc(-c2cccc(C(F)(F)F)c2)cc1[C@H]1[C@@H]2C[C@@H](N3CCC4(C3)CS(=O)(=O)C4)C[C@@H]21 (single isomer, unassigned) [Compound 2] | 5.91 | 1.81
CC(C)n1nc(-c2cncc(C(F)(F)F)c2)cc1[C@H]1[C@@H]2C[C@H](N3CCC4(C3)CS(=O)(=O)C4)C[C@@H]21 (single isomer, unassigned) [Compound 4] | 14.5 | 3
CC(C)n1nc(-c2cc(C(F)(F)F)ccn2)cc1[C@H]1[C@@H]2C[C@@H](N3CCC4(C3)CS(=O)(=O)C4)C[C@@H]21 (single isomer, unassigned) [Compound 20] | 48.9 | 1.2
C=C(c1cc([C@H]2[C@@H]3C[C@H](N4CCC5(C4)CS(=O)(=O)C5)C[C@@H]32)n(C(C)C)n1)C(F)(F)F [Compound 31, 6-((1R,3r,5S,6r)-6-(1-Isopropyl-3-(3,3,3-trifluoroprop-1-en-2-yl)-1H-pyrazol-5-yl)bicyclo[3.1.0]hexan-3-yl)-2-thia-6-azaspiro[3.4]octane 2,2-dioxide] | 19.2 | 7.1
CC(C)n1nc(-c2cncc(C(F)(F)F)c2)cc1[C@H]1[C@@H]2C[C@H](N3CC4(C3)CS(=O)(=O)C4)C[C@@H]21 (single isomer, unassigned) [Compound 99*] | 48 | 86
CC(C)n1nc(-c2cccc(C(F)(F)F)n2)cc1[C@H]1[C@@H]2C[C@H](N3CCC4(C3)CS(=O)(=O)C4)C[C@@H]21 (single isomer, unassigned) [Compound 12] | 12 | 3.7
CC(C)n1nc(C(F)(F)F)cc1[C@H]1[C@@H]2C[C@@H](N3CCC4(C3)CS(=O)(=O)C4)C[C@@H]21 (single isomer, unassigned) [Compound 22] | 12.4 | 12
CC(C)n1nc(-c2cccc(C(F)(F)F)n2)cc1[C@H]1[C@@H]2C[C@H](N3CCC4(CC3)CS(=O)(=O)C4)C[C@@H]21 (single isomer, unassigned) [Compound 48] | 12.5 | 10
CC(C)n1nc(-c2ccnc(C(F)(F)F)c2)cc1[C@H]1[C@@H]2C[C@H](N3CCC4(C3)CS(=O)(=O)C4)C[C@@H]21 (single isomer, unassigned) [Compound 19] | 9.6 | 2.5
CC(C)n1nc(-c2ccnc(C(F)(F)F)n2)cc1[C@H]1[C@@H]2C[C@@H](N3CCC4(CC3)CS(=O)(=O)C4)C[C@@H]21 (single isomer, unassigned) [Compound 49] | 64.9 | 2.7
CC(C)n1nc(-c2ccnc(C(F)(F)F)n2)cc1[C@H]1[C@@H]2C[C@@H](N3CCC4(C3)CS(=O)(=O)C4)C[C@@H]21 [Compound 28, 6-((1R,3s,5S,6r)-6-(1-isopropyl-3-(2-(trifluoromethyl)pyrimidin-4-yl)-1H-pyrazol-5-yl)bicyclo[3.1.0]hexan-3-yl)-2-thia-6-azaspiro[3.4]octane 2,2-dioxide] | 24.6 | 6
CC(C)n1nc(-c2cncc(C(F)(F)F)c2)cc1[C@H]1[C@@H]2C[C@@H](N3CC4(C3)CS(=O)(=O)C4)C[C@@H]21 (single isomer, unassigned) [Compound 98*] | 54 | 55
CC(C)n1nc(-c2ccnc(C(F)(F)F)c2)cc1[C@H]1[C@@H]2C[C@@H](N3CCC4(C3)CS(=O)(=O)C4)C[C@@H]21 (single isomer, unassigned) [Compound 18] | 17 | 2.3
CC(C)n1nc(-c2cnc(C(F)(F)F)nc2)cc1[C@H]1[C@@H]2C[C@H](N3CCC4(C3)CS(=O)(=O)C4)C[C@@H]21 [Compound 6, 6-((1R,3r,5S,6r)-6-(1-Isopropyl-3-(2-(trifluoromethyl)pyrimidin-5-yl)-1H-pyrazol-5-yl)bicyclo[3.1.0]hexan-3-yl)-2-thia-6-azaspiro[3.4]octane 2,2-dioxide] | 18.1 | 29
CC(C)n1nc(-c2cncc(C(F)(F)F)c2)cc1[C@H]1[C@@H]2C[C@H](N3CC[C@@]4(CCS(=O)(=O)C4)C3)C[C@@H]21 (single isomer, unassigned) [Compound 9*] | 20.1 | 2.7
CC(C)n1nc(C(F)(F)F)cc1[C@H]1[C@@H]2C[C@H](N3CCC4(C3)CS(=O)(=O)C4)C[C@@H]21 (single isomer, unassigned) [Compound 23] | 12.4 | 12
CC(C)n1nc(-c2cncc(C(F)(F)F)c2)nc1[C@H]1[C@@H]2C[C@H](N3CCC4(C3)CS(=O)(=O)C4)C[C@@H]21 (single isomer, unassigned) [Compound 17] | 116 | 42
CC(C)n1nc(-c2cncc(C(F)(F)F)c2)cc1[C@H]1[C@@H]2C[C@H](N3CCC4(CC3)CS(=O)(=O)C4)C[C@@H]21 (single isomer, unassigned) [Compound 40] | 18.4 | 5.9
CCn1nc(-c2cncc(C(F)(F)F)c2)cc1[C@H]1[C@@H]2C[C@@H](N3CCC4(C3)CS(=O)(=O)C4)C[C@@H]21 (single isomer, unassigned) [Compound 24] | 19.9 | 1.8
CC(C)n1nc(-c2ccc(C(F)(F)F)cc2)cc1[C@H]1[C@@H]2C[C@H](N3CCC4(C3)CS(=O)(=O)C4)C[C@@H]21 [Compound 5, 6-((1R,3r,5S,6r)-6-(1-Isopropyl-3-(4-(trifluoromethyl)phenyl)-1H-pyrazol-5-yl)bicyclo[3.1.0]hexan-3-yl)-2-thia-6-azaspiro[3.4]octane 2,2-dioxide] | 43 | 3.6
CC(C)n1nc(-c2cc(C(F)(F)F)ccn2)cc1[C@H]1[C@@H]2C[C@H](N3CCC4(C3)CS(=O)(=O)C4)C[C@@H]21 (single isomer, unassigned) [Compound 21] | 17.1 | 3.1
CC(C)n1nc(-c2cncc(C(F)(F)F)c2)cc1[C@H]1[C@@H]2C[C@@H](N3CCC4(CC3)CS(=O)(=O)C4)C[C@@H]21 (single isomer, unassigned) [Compound 38] | 41 | 2.9
CCn1nc(-c2cncc(C(F)(F)F)c2)cc1[C@H]1[C@@H]2C[C@H](N3CCC4(C3)CS(=O)(=O)C4)C[C@@H]21 (single isomer, unassigned) [Compound 25] | 14.6 | 0.36
CC(C)n1nc(-c2cccc(C(F)(F)F)n2)cc1[C@H]1[C@@H]2C[C@@H](N3CCC4(CC3)CS(=O)(=O)C4)C[C@@H]21 (single isomer, unassigned) [Compound 47] | 175 | 1.9
CC(C)n1nc(-c2ccnc(C(F)(F)F)n2)cc1[C@H]1[C@@H]2C[C@H](N3CCC4(CC3)CS(=O)(=O)C4)C[C@@H]21 (single isomer, unassigned) [Compound 50] | 49 | 20
